Drawing on patent US7674793B2, “Tricyclic dihydropyrazines as potassium channel openers” (Janssen Pharmaceutica NV, priority 2006, dated 2010), this text covers Response for three molecules.

The assay concerns the target T1, KATP channels (Homo sapiens, UniProt O60706+Q14654).
T1 construct: TE671 human medulloblastoma cells were obtained from ATCC; host or cells: TE671 human medulloblastoma cells
Kind of assay: Potassium Channel Assay (FLIPR membrane potential dye, TE671 cells). The class given is cell-based. The arrangement: key: Active: A compound was designated as active if it produced greater than or equal to 10% response at 30 μM; Inactive: A compound was designated as inactive if it produced less than 10% response at 30 μM. To be noted: percent response at 30 μM; TE671 human medulloblastoma cells; hyperpolarization seen as decrease in fluorescent intensity, room temperature. How it is done:
TE671 human medulloblastoma cells were obtained from ATCC and grown in Dulbecco's modified Eagle's medium (DMEM) supplemented with 10% fetal bovine serum, 100 U/ml penicillin and 100 U/ml streptomycine.
The day before testing, the cells were plated in black 96-well plates at 50 K/well. On the day of testing, the growth media was removed, then 100 μl of FLIPR buffer (20 mM HEPES, 120 mM NaCl, 2 mM KCl, 2 mM CaCl2, 1 mM MgCl2, 5 mM Glucose) and 100 μl of Membrane Potential Assay Dye (Molecular Devices) dissolved in FLIPR buffer were added to each well. The cells were incubated at room temperature for 15 to 30 min.
The effect of test compounds on KATP channels were evaluated on a fluorometric imaging plate reader (FLIPR, Molecular Devices) at room temperature. After a baseline period, 50 μl of 5× stock solution of test compound prepared in FLIPR buffer was added and fluorescent change was monitored for 3 minutes. After this reading, glyburide, a KATP channel blocker, was added to a final concentration of 5 μM to check the specificity of the test compound as a KATP channel openers. Hyperpolarization resulting from KATP channel opening was observed as a decrease in fluorescent intensity.
Representative compounds of the present invention were tested according to the procedure described above, with results as listed in Table BIO1 below. Test compound activity was determined as the percent. A compound was designated as active if it produced greater than or equal to 10% response at 30 μM.

T1 sequence (O60706 1-1549 isoform O60706-2): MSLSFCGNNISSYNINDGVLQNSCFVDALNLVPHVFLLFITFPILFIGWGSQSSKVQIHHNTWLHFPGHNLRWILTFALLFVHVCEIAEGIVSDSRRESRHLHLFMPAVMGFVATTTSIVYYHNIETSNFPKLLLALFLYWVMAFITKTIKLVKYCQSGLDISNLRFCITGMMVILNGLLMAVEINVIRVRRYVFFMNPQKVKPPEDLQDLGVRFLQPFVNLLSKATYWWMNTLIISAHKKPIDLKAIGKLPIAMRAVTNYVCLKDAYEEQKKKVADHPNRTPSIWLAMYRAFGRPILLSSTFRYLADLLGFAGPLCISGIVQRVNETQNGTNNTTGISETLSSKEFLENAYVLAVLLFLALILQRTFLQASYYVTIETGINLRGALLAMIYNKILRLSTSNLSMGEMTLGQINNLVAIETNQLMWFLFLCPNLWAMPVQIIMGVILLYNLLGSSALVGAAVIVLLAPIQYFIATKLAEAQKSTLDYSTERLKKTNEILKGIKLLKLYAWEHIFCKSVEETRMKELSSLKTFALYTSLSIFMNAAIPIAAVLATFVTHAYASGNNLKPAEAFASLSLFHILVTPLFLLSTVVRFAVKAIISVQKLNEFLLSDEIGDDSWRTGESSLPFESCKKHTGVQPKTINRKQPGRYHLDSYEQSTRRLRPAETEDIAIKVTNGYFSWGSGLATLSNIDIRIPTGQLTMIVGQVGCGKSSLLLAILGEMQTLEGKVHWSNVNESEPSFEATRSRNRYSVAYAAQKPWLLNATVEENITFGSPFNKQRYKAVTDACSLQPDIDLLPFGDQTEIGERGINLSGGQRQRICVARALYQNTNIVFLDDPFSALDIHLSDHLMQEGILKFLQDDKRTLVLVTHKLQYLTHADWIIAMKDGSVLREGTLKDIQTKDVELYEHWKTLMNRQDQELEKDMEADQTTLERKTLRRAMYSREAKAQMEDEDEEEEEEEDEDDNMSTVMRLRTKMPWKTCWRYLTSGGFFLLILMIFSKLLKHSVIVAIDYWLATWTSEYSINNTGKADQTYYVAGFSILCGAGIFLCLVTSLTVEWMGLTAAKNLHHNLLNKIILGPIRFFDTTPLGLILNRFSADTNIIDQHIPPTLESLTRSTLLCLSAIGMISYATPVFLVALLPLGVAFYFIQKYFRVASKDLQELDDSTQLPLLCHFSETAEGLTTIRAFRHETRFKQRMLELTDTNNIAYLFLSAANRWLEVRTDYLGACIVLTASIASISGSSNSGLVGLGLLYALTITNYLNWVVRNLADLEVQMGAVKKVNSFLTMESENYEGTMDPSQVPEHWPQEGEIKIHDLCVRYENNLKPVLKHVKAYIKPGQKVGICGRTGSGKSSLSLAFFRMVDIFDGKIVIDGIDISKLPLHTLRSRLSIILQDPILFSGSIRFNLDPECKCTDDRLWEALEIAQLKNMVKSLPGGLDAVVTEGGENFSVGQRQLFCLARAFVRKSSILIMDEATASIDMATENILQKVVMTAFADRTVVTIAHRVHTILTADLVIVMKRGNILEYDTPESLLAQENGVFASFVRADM
T1 sequence (Q14654 whole entry): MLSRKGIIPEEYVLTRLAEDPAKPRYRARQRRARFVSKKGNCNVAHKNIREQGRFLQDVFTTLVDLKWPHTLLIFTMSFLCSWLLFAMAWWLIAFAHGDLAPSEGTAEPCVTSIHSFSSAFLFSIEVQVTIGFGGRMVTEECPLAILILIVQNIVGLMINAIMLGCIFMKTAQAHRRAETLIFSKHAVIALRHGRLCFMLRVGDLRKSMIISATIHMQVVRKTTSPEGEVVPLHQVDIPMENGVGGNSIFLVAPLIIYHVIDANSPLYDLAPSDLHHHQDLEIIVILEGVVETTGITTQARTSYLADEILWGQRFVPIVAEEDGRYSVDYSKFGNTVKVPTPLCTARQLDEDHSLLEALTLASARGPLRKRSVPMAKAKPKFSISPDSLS

In the case of `O=C1CCCC(O)=C1N(C1=C(O)CCCC1=O)c1cccc(I)c1` [compound 3], the Response entry is listed as “Active”.

As for `O=C1CCCC(O)=C1N(C1=C(O)CCCC1=O)c1ccc(F)c(F)c1` [compound 2], the Response result is recorded as “Active”.

Turning to `N#Cc1cccc(N(C2=C(O)CCC2=O)C2=C(O)CCC2=O)c1` [compound 5], the Response result is given as “Active”.
